The source of these data is patent US20080051429A1, “USE OF 4-AMINO-PIPERIDINES FOR TREATING SLEEP DISORDERS” (priority 2006, published 2008).

The target of one experiment is T1, 5-HT2A receptor (Homo sapiens, UniProt P28223).
T1 construct: expressed in transfected cells; host or cells: NIH3T3 cells, pSI expression vector
Briefly: R-SAT functional receptor assay. Type of experiment: cell-based.

The next experiment concerns Male NSA mice. Briefly: In vivo determination of behavioral effects (motor activity, MK-801 hyperactivity). To be noted: p.o.; minimum effective dose vs vehicle control. How it is done: Male NSA mice (Harlan; San Deigo, Calif.) were used as subjects. Mice weighed 20-30 g. Animals were housed 8/cage in the One Cage system (One Cage; Lab Products, Inc., Seaford, Del.) with bedding (⅛ inch Bed “O” Cob; Harlan Teklad, Madison, Wis.) in a room with controlled temperature 22±3° C. and a 12 hour light:dark cycle (lights on 6 am). Water and standard rodent chow (Harlan Teklad) were continuously available in the home cage. For testing, plastic locomotor activity cages (20×20×30 cm; AccuScan Instruments, Columbus, Ohio) were equipped with photocell beams for monitoring horizontal activity. Data were collected using Versamax computer software (AccuScan Instruments). For determination of spontaneous activity, test compounds were administered alone (s.c. 10 min or p.o. 30 min before the session). For hyperactivity experiments, mice were injected with 0.3 mg/kg MK-8011.p. 15 min precession (the peak dose for producing hyperactivity in an inverted-U dose-effect curve as determined in pilot experiments) in combination with vehicle or test compound. Motor activity data were collected during a 15 min session in a lit room. Mice had no prior exposure to the motor cages. Each dose or dose combination was tested in a separate group of mice (n=8). Distance traveled (cm) was calculated and averaged across animals in a group. […]

T1 sequence (P28223 whole entry): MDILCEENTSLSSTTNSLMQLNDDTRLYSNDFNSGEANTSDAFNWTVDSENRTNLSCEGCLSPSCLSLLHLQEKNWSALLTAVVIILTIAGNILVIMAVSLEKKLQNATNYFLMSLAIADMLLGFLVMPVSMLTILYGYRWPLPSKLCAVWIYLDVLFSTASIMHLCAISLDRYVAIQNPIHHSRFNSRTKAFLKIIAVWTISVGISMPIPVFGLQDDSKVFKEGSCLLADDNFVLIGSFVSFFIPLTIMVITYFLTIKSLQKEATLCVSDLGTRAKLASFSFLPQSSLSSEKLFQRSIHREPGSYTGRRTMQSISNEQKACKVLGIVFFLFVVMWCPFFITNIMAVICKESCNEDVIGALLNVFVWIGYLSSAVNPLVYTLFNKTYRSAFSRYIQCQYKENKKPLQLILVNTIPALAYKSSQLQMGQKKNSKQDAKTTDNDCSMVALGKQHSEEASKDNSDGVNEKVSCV

Consider `CC(C)COc1ccc(CC(=O)N(Cc2ccc(F)cc2)C2CCN(CCCN3C(=O)OC[C@@H]3C(C)C)CC2)cc1.O=C(O)C(=O)O` [Example 117NLS01, N-(4-Fluorobenzyl)-2-(4-isobutoxyphenyl)-N-{1-[3-(4-(S)-isopropyl-2-oxo-oxazolidin-3-yl)propyl]piperidin-4-yl}acetamide, oxalate], for which the Emax at 5-HT2A receptor (120 h, read-out: 5HT2A % INH) stood at 104%. Moreover, the IC50 on 5-HT2A receptor (Table 5, read-out: 5HT2A pIC50 (converted)) is 0.2 nM. In the experiment on Male NSA mice, the “MED in vivo po” value stood at 1 mg/kg.
